Assay [1] relates to fibrotic human lung tissue. As to the kind of experiment: Ex vivo matrix flow in fibrotic human lung tissue. Type of assay: cell-based. The method, then:
All tissues (PFA, ST) used in this study were obtained with properly informed consent of patients. All experimental procedures were performed in accordance with the Ethics committee vote number/Study protocol number: 333-10 Parent Proposal number: BA34/2018.
(§1) C57BL/6J male mice (6-8 weeks age) used to study the movement of lung matrix. After organ withdrawal 4 mm biopsy punches of murine lungs were generated. To obtain ectopic labeling of matrix, the inventors generated a labelling solution by mixing NHS-ester 1:1 with 100 mM pH 9.0 sodium bicarbonate buffer. Sterile Whatman filter paper (Sigma Aldrich) biopsy punches where soaked in NHS-labelling solution, and locally placed on the lung biopsy surface. After one minute, the labelling punch was removed. Mouse lung biopsies were cocultured in the RPMI medium (10% FBS with 1% Pen/Strep and 0.1% AmB) consist of different sub types of immune cells (0.1×10^6 cells/biopsy) isolated from the healthy and idiopathic pulmonary fibrosis human donors. Mouse lung biopsies with immune cells were then cultured in the ex vivo condition provided with 5% C02 at 37° C.
(§2) After 48 hours, mouse lung biopsies were fixed with the 4% formalin and incubated for overnight at 4° C. followed by PBS wash. Human lung tissues where obtained, labelled, and cultivated for 24 hours as described above.

A further assay has as its system C57BL/6J mice. Description: Pharmacologic treatment regime in the bleomycin-induced lung fibrosis model. Type of assay: in vivo, mouse. The settings on record: for pleural matrix pools: after bleomycin-induced injury. How it is done: The inventors generated a labelling solution by mixing 5 μl NHS-ester (25 mg/ml) with 5 μl of 100 mM pH 9.0 sodium bicarbonate buffer, combining with 40 μl PBS to a total volume of 50 μl. Labelling solution was applied intrapleurally (for lung and/or heart fibrosis model) under isoflurane anesthesia with a 30 G cannula. Abdominal labeling was performed by injecting 100 μl of labelling solution intra-peritoneal (for liver and/or kidney fibrosis model).
The oropharyngeal administration of bleomycin for the induction of pulmonary fibrosis is carried out in an antagonistic anesthesia in C57BL/6J mice of both sexes (6-8 weeks age). After the toe-pinch reflex is absent, the mouse is placed on the incisors of the upper jaw and thus kept in an upright position. The tongue is carefully fixed with is held to the side with tweezers and the nose of the animal is covered with tweezers. By keeping the nose closed, the mouse is forced to breathe through the mouth. With the help of a pipette, bleomycin is dissolved in a dosage of 2 units/kg KGW in 80 μl PBS carefully into the throat. As soon as the animal has inhaled the solution, it will be
Hot plate transferred (duration approx. 30 to 60 seconds). After antagonization animals were housed for 14 days. Nintedanib was added 1 hour before bleomycin installation and every other day intra peritoneal 10 μM.
Pirfenidone (0.07 mg/kg), Nintedanib (0.21 mg/kg) and Cathepsin Inhibitor B (0.15 mg/kg) were injected 1 hour before bleomycin installation and every other day intra peritoneal in a volume of 100 μl in physiological saline solution.
(§3) Matrix invasion was calculated using histological sections, quantifying FITC signal per area via ImageJ (1.52i). Quantification of immunolabeling was performed in randomly distributed ROIs/FOVs. Multiphoton images were analyzed using Fiji plugins Fraklac V. 2.5 and LocalThickness_V-4.0.2.

For another assay, the system named is TGFβ signaling. As to the kind of experiment: Ex vivo mouse lung biopsies treated with granulocytes, then TGFβ inhibitors. Type of assay: cell-based. The settings on record: for matrix invasion: in the presence of granulocytes; for phosphorylated SMAD (pSMAD): mouse lung biopsies treated with granulocytes. How it is done: as §1, §2, §3
The inventors sought to characterize the signaling pathways by which immune cells trigger matrix invasion and fibrosis and we naturally sought to investigate the known chief proponent, TGFβ. They wondered whether the fibrotic cascade of immune cells might start with mesothelial TGFβ expression. Mouse lung biopsies were treated with granulocytes, followed by administering two TGFβ inhibitors, Repsox and LDN-212854, in separate experiments (FIG. 2A). Inhibition of TGFβ signaling in both chemical assays decreased phosphorylated SMAD (pSMAD), which is the major mediator of TGFβ-induced signaling. Furthermore, inhibiting TGFβ reduced matrix invasion, even in the presence of granulocytes. Moreover, adding granulocytes alone led to increased phosphorylated SMAD signaling in mesothelium. These findings indicate granulocytes trigger TGFβ expression in mesothelium to initiate matrix accumulation and irrigation.

The mark [2] stands for this setting: bleomycin, intra peritoneal 1 hour before and every other day.

On to `CC(NC(=O)[C@H](Cc1ccccc1)NC(=O)OCc1ccccc1)C(=O)CF` (stereo partly shown) [Z-FA-FMK], for which the fluid matrix flows result in assay [1] was “blocks”. Also, the pleural matrix pools result in the assay on C57BL/6J mice is “rescue”. Also, in the assay with C57BL/6J mice (setting [2]), the bleomycin-induced mortality result was “abrogated”, the fibrosis development result is “completely prevented”, the “matrix invasion into lungs (matrix movements)” value (from here on “matrix invasion into lungs”) is “completely prevented” and the “survival rates of lung injured animals” value is 100%. Also, the bleomycin-induced mortality entry in the assay with C57BL/6J mice (bleomycin, intra peritoneal 1 hour before and every other day, listed as Cathepsin B inhibitor) is “prevent”.
With `Cc1cccc(-c2[nH]ncc2-c2ccc3ncccc3n2)n1` [Repsox], in the assay on TGFβ signaling, the matrix invasion result is listed as “reduced” and the “phosphorylated SMAD (pSMAD)” value is reported as “decreased”.
The like results for `c1cc(-c2cnn3cc(-c4ccc(N5CCNCC5)cc4)cnc23)c2cccnc2c1` [LDN-212854] were, in that order, “reduced” and “decreased”.
As for `COC(=O)c1ccc2c(c1)NC(=O)/C2=C(\Nc1ccc(N(C)C(=O)CN2CCN(C)CC2)cc1)c1ccccc1` [Nintedanib], in the assay on C57BL/6J mice, the pleural matrix pools result was “rescue”. In the assay with C57BL/6J mice (setting [2]), the bleomycin-induced mortality entry is listed as “prevent”, the “matrix invasion into lungs” value is “inhibiting matrix movements” and the “survival rates of lung injured animals” value was “comparable”.
On to `Cc1ccc(=O)n(-c2ccccc2)c1` [Pirfenidone], for which the pleural matrix pools entry with C57BL/6J mice is recorded as “rescue”. Besides, in the assay on C57BL/6J mice (setting [2]), the bleomycin-induced mortality result is recorded as “prevent”, the “matrix invasion into lungs” value is “inhibiting matrix movements” and the “survival rates of lung injured animals” value was “comparable”.
